ChEMBL document CHEMBL5352449, “Exploration and biological evaluation of 7-methoxy-3-methyl-1H-chromeno[4,3-c]pyrazol-4-one as an activating transcription factor 3 inducer for managing metabolic syndrome” (Eur J Med Chem, 2023)
Activity calls are given as the source filed them. The calls are words filed in the database; no cut-off is given here.

Key:
[1] = Induction of AFT3 gene expression in mouse 3T3-L1 cells assessed as relative gene expression level at 50 uM incubated for 8 days by real time-PCR analysis (reference value: 1.00); assay type: functional; settings: time 8 day
Mus musculus [2] = assay: Hepatoprotective activity in high fat diet induced C57BL/6 mouse assessed as reduction in GPT level at 40 mg/kg administered thrice weekly; assay type: functional, organism-based
Mus musculus [3] = assay: Reduction in hepatic steatosis in high fat diet induced metabolic disturbance in C57BL/6 mouse model at 40 mg/kg, ip by hematoxylin and eosin staining based assay; assay type: functional, organism-based
Mus musculus [4] = species: Mus musculus; assay: Anti-hyperglycemic activity in 16 hrs overnight fasted high fat diet induced C57BL/6 mouse assessed as reduction in glucose intolerance measured at upto 120 mins; assay type: functional, organism-based
Mus musculus [5] = species: Mus musculus; assay: Anti-hyperglycemic activity in 16 hrs overnight fasted high fat diet induced C57BL/6 mouse assessed as reduction in insulin resistance measured at upto 120 mins; assay type: functional, organism-based
Mus musculus [6] = assay: Inhibition of high fat diet induced metabolic disturbance in C57BL/6 mouse model assessed as reduction in epididymal white adipose tissue weight at 40 mg/kg, ip; assay type: functional, organism-based
Mus musculus [7] = assay: Inhibition of high fat diet induced metabolic disturbance in C57BL/6 mouse model assessed as reduction in size of epididymal white adipose tissue at 40 mg/kg, ip; assay type: functional, organism-based
Mus musculus [8] = assay: Protection against hyperlipidemia in high fat diet-fed C57BL/6 mouse model assessed as reduction in hypo-triglyceridemic level at 40 mg/kg administered thrice weekly; assay type: functional, organism-based
Mus musculus [9] = species: Mus musculus; assay: Inhibition of high fat diet induced metabolic disturbance in C57BL/6 mouse model assessed as reduction in hypertrophic eWAT adipocytes by H and E staining based analysis; assay type: functional, cell-based
Mus musculus [10] = assay: Hepatoprotective activity in high fat diet induced C57BL/6 mouse assessed as reduction in GOT level at 40 mg/kg administered thrice weekly; assay type: functional, organism-based
Mus musculus [11] = assay: Protection against hyperlipidemia in high fat diet-fed C57BL/6 mouse model assessed as reduction in total plasma cholesterol level at 40 mg/kg administered thrice weekly; assay type: functional, organism-based
[12] = Inhibition of high fat diet induced metabolic disturbance in C57BL/6 mouse model assessed as reduction in body weight at 40 mg/kg, ip administered 3 times weekly for 10 weeks (reference value: 34.86 +/-[…]); assay type: functional
Mus musculus [13] = assay: Inhibition of high fat diet induced metabolic disturbance in C57BL/6 mouse model assessed as reduction in […] adipose tissue weight at 40 mg/kg, ip; assay type: functional, organism-based
Mus musculus [14] = species: Mus musculus; assay: Inhibition of high fat diet induced metabolic disturbance in C57BL/6 mouse model assessed as reduction in hypertrophic iWAT adipocytes by H and E staining based analysis; assay type: functional, cell-based
Mus musculus [15] = assay: Inhibition of high fat diet induced metabolic disturbance in C57BL/6 mouse model assessed as reduction in inguinal white adipose tissue weight at 40 mg/kg, ip; assay type: functional, organism-based
3T3-L1 [16] = assay: Induction of AFT3 expression in mouse 3T3-L1 cells at 50 to 100 uM incubated for 6 days by Western blot analysis; assay type: functional, cell-based; settings: dose 50-100 µM, time 6.0 day
[17] = (§1) Cytotoxicity against mouse 3T3-L1 adipocytes assessed as reduction in cell viability; assay type: toxicity, cell-based; settings: 3T3-L1 adipocytes
3T3-L1 [18] = assay: as §1; assay type: toxicity, cell-based; settings: 3t3-l1
3T3-L1 [19] = assay: Downregulation of lipid accumulation in mouse 3T3-L1 pre-adipocyte model at 50 to 100 uM incubated for […] by Oil Red O staining based analysis; assay type: functional, cell-based; settings: dose 50-100 µM

## Cc1coc2c1c(=O)oc1c3ccccc3ccc21
[1]
  Activity: 1.94

## CC1(C)Oc2c(c(=O)oc3c2ccc2ccccc23)C1(C)C
[1]
  Activity: 3.22

## Cc1ccc2c(c1)oc(=O)c1c(C)n[nH]c12
[1]
  Activity: 1.38

## COc1ccc2c(c1)oc(=O)c1c(C(F)(F)F)n[nH]c12
[1]
  Activity: 1.55

## Cc1[nH]nc(-c2ccc3ccccc3c2O)c1C(=O)O
[1]
  Activity: 1.2

## O=c1oc2cc(Br)ccc2c2c1C(O)(C(F)(F)F)CO2 (centres undefined)
[1]
  Activity: 1.08

## COc1ccc2c(c1)oc(=O)c1c(C)n[nH]c12
Mus musculus [2]
  Activity: Active
Mus musculus [3]
  Activity: Active
Mus musculus [4]
  Activity: Active
Mus musculus [5]
  Activity: Active
Mus musculus [6]
  inhibition: Active
Mus musculus [7]
  inhibition: Active
Mus musculus [8]
  Activity: Active
[1]
  Activity: 4.29
Mus musculus [9]
  inhibition: Active
Mus musculus [10]
  Activity: inactive
Mus musculus [11]
  Activity: Active
[12]
  Activity: 30 g
Mus musculus [13]
  inhibition: Active
Mus musculus [14]
  inhibition: Active
Mus musculus [15]
  inhibition: Active
3T3-L1 [16]
  Activity: Active
[17]
  CC50: > 100 µM

## O=c1oc2c3ccccc3ccc2c2[nH]nc(C(F)(F)F)c12
[1]
  Activity: 1.62

## O=c1oc2c(ccc3ccccc32)c2c1C(O)(C(F)(F)F)CO2 (centres undefined)
[1]
  Activity: 2.19

## O=C(O)c1coc2c1c(=O)oc1c3ccccc3ccc21
[1]
  Activity: 1.06

## COc1ccc(-c2n[nH]c(C)c2C(=O)O)c(O)c1
[1]
  Activity: 1.07

## Cn1ncc2c3ccc4ccccc4c3oc(=O)c21
[1]
  Activity: 1.44

## OCc1c(C(F)(F)F)coc1-c1ccc2ccccc2c1O
[1]
  Activity: 1.41

## COc1cccc2c1oc(=O)c1c(C(F)(F)F)n[nH]c12
[1]
  Activity: 1.81

## COc1ccc2c(c1)oc(=O)c1c(C)onc12
[1]
  Activity: 1.62

## COc1cccc2oc(=O)c3c(C)n[nH]c3c12
[1]
  Activity: 0.98

## O=c1oc2cc(O)ccc2c2occ(C(F)(F)F)c12
[1]
  Activity: 1.4

## Cc1n[nH]c2c1c(=O)oc1c3ccccc3ccc21
[1]
  Activity: 1.84

## Cc1n[nH]c2c1c(=O)oc1cc(F)ccc12
[1]
  Activity: 1.46

## COc1ccc2c(c1)oc(=O)c1c(C(F)(F)F)coc12
[1]
  Activity: 2.8

## Cc1n[nH]c2c1c(=O)oc1cc(Br)ccc12
[1]
  Activity: 2.12

## O=c1oc2cc(O)ccc2c2c1C(O)(C(F)(F)F)CO2 (centres undefined)
[1]
  Activity: 0.99

## O=c1oc2c3ccccc3ccc2c2occ(CO)c12
[1]
  Activity: 1.39

## COc1ccc2c3c(c(=O)oc2c1)C(O)(C(F)(F)F)CO3 (centres undefined)
[1]
  Activity: 1.39

## O=c1oc2cc(Br)ccc2c2[nH]nc(C(F)(F)F)c12
[1]
  Activity: 7.31
3T3-L1 [18]
  Activity: Toxic

## Cc1coc2c1c(=O)oc1cc(Br)ccc12
[1]
  Activity: 1.28

## C[C@@H]1c2c(c3ccc4ccccc4c3oc2=O)O[C@@H]1C
Mus musculus [2]
  Activity: inactive
Mus musculus [4]
  Activity: Active
Mus musculus [5]
  Activity: Active
Mus musculus [6]
  inhibition: Active
Mus musculus [7]
  inhibition: Active
[1]
  Activity: 2.1
Mus musculus [9]
  inhibition: Active
Mus musculus [10]
  Activity: inactive
Mus musculus [11]
  Activity: Active
[12]
  Activity: 30.5 g
Mus musculus [13]
  inhibition: Active
Mus musculus [14]
  inhibition: Active
Mus musculus [15]
  inhibition: Active

## O=c1oc2cc(OCc3ccncc3)ccc2c2occ(C(F)(F)F)c12
[1]
  Activity: 1.23

## COc1ccc2c(c1)oc(=O)c1c(C3CC3)coc12
[1]
  Activity: 1.96

## COc1cccc2c1oc(=O)c1c(C)n[nH]c12
3T3-L1 [19]
  Activity: Active
[1]
  Activity: 4.78
3T3-L1 [16]
  Activity: Active
[17]
  CC50: > 100 µM

## O=c1oc2c3ccccc3ccc2c2occ(C(F)(F)F)c12
[1]
  Activity: 1.44

## O=c1oc2c3ccccc3ccc2c2occ(C3CC3)c12
[1]
  Activity: 2.92
